Each structure is given as a SMILES string.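 Values below derive from 48-hour exposures of cells grown in 96-well plates, with endpoints linearly interpolated between the two concentrations bracketing the appropriate inhibition level. GI50 = concentration required for 50% inhibition of growth. TGI: concentration producing complete growth inhibition.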

Some test systems named below: PC-3 prostate; HCC-2998 colon; MOLT-4 leukemia; MDA-MB-231 breast; HL-60(TB) leukemia; HCT-15 colon; CCRF-CEM leukemia; SNB-19 CNS; BT-549 breast; K-562 leukemia.
Experiment in all cases: NCI-60 cell line screen, 48 h

On to `[O]=[Sn]([CH]1CCCCC1)[CH]1CCCCC1`, for which the GI50 in the assay with PC-3 prostate is 0.517 µM; in the assay with HCC-2998 colon, 0.245 µM; with MOLT-4 leukemia, 0.273 µM; with MDA-MB-231 breast, 0.28 µM; in the assay with HL-60(TB) leukemia, 0.248 µM; with HCT-15 colon, 0.197 µM. Moreover, the GI50 in the assay on CCRF-CEM leukemia was 0.0488 µM; with SNB-19 CNS it was 0.271 µM; in the assay on BT-549 breast, 0.229 µM; in the assay on K-562 leukemia, 0.117 µM. In addition, the TGI is 1.94 µM in the assay on PC-3 prostate; 0.693 µM with HCC-2998 colon; 1.04 µM in the assay with MDA-MB-231 breast; 1.55 µM in the assay with HL-60(TB) leukemia; 0.691 µM in the assay on HCT-15 colon; 0.774 µM in the assay with CCRF-CEM leukemia. Also, the TGI with SNB-19 CNS is 0.95 µM; in the assay on BT-549 breast it was 0.588 µM.

Turning to `Nc1ccc(CC[C@H]2CCC/C=C/[C@@H]3C[C@H](O)C[C@H]3[C@H](O)/C=C/C(=O)O2)cc1`, the GI50 in the assay with PC-3 prostate is 0.0494 µM; in the assay with HCC-2998 colon it was 0.0266 µM; with MOLT-4 leukemia, 0.029 µM; in the assay with MDA-MB-231 breast, 0.0212 µM; with HL-60(TB) leukemia, 0.0535 µM; in the assay with HCT-15 colon it was 0.0455 µM. The GI50 with CCRF-CEM leukemia is 0.0437 µM; in the assay on SNB-19 CNS it was 0.0504 µM; with BT-549 breast, 0.0381 µM; in the assay on K-562 leukemia it was 0.043 µM. Also, the TGI in the assay on PC-3 prostate was greater than 100 µM; in the assay on MOLT-4 leukemia, 0.0847 µM; in the assay with MDA-MB-231 breast, 0.0421 µM; in the assay on HL-60(TB) leukemia it was 1.55 µM; in the assay on HCT-15 colon, 16.7 µM; with CCRF-CEM leukemia, greater than 64.9 µM. Moreover, the TGI in the assay with SNB-19 CNS was greater than 100 µM; in the assay on BT-549 breast, 16.1 µM; in the assay with K-562 leukemia, greater than 100 µM.

Take `Cc1cc(N2CCC(N3CCCC3)CC2)nc(/N=C(\N)Nc2ccc(Cl)c(Cl)c2)n1`: the GI50 in the assay on PC-3 prostate is 2.65 µM; in the assay with HCC-2998 colon, 1.54 µM; with MOLT-4 leukemia, 3.32 µM; in the assay on MDA-MB-231 breast, 1.67 µM; in the assay with HCT-15 colon, 1.64 µM; in the assay with CCRF-CEM leukemia it was 3.28 µM. Further, the GI50 with SNB-19 CNS is 2.14 µM; in the assay with BT-549 breast it was 2.44 µM; in the assay with K-562 leukemia it was 2.58 µM. Also, the TGI is 8.26 µM in the assay on PC-3 prostate; 3.17 µM with HCC-2998 colon; greater than 100 µM in the assay on MOLT-4 leukemia; 3.64 µM in the assay on MDA-MB-231 breast; 3.64 µM in the assay with HCT-15 colon; greater than 100 µM in the assay with CCRF-CEM leukemia. The TGI in the assay on SNB-19 CNS was 5.63 µM; in the assay with BT-549 breast, 6.37 µM; in the assay with K-562 leukemia it was greater than 100 µM.

In the case of `O=[N+]([O-])c1cccc(/C=N/Nc2ccc3ccccc3n2)c1O`, the TGI with PC-3 prostate is 56.7 µM; in the assay with MOLT-4 leukemia, 10.7 µM; with MDA-MB-231 breast, 25.6 µM; with HL-60(TB) leukemia, 3.13 µM; in the assay on HCT-15 colon, greater than 100 µM; in the assay on SNB-19 CNS, 47.4 µM. For the same molecule, the results for the TGI in the assay on BT-549 breast and with K-562 leukemia were 37.9 µM and greater than 100 µM, respectively.

Regarding `OCCCN=C1CCCCC1`, the TGI in the assay on PC-3 prostate, in the assay on MOLT-4 leukemia, with MDA-MB-231 breast, in the assay on HL-60(TB) leukemia, with HCT-15 colon and in the assay with SNB-19 CNS was greater than 100 µM throughout. Besides, the TGI with BT-549 breast and with K-562 leukemia was greater than 100 µM each time.

As to `Cc1cc(C)c2nc3c(c(C(O)C4CCCCN4)c2c1)CC/C3=C\c1ccc(Cl)cc1` (stereo not given), the TGI in the assay on PC-3 prostate is greater than 100 µM; in the assay with MOLT-4 leukemia, greater than 100 µM; in the assay on MDA-MB-231 breast it was greater than 100 µM; in the assay with HL-60(TB) leukemia, 67.6 µM; in the assay with HCT-15 colon, greater than 100 µM; with CCRF-CEM leukemia it was greater than 100 µM. Moreover, the TGI in the assay with SNB-19 CNS, in the assay with BT-549 breast and with K-562 leukemia was greater than 100 µM throughout.

For `COC(=O)c1c(C)nc(C)c2c1C(=O)C(Br)=C(NCc1ccccc1)C2=O`, the GI50 was 2.73 µM in the assay with PC-3 prostate; 3.4 µM in the assay with HCC-2998 colon; 3.09 µM in the assay with MOLT-4 leukemia; 2.11 µM with MDA-MB-231 breast; 2.76 µM with HCT-15 colon; 3.11 µM in the assay with CCRF-CEM leukemia. For the same molecule, the GI50 in the assay with SNB-19 CNS was 3.04 µM; in the assay on BT-549 breast, 4.09 µM; in the assay on K-562 leukemia, 3.36 µM. Further, the TGI with PC-3 prostate is 10.9 µM; in the assay on HCC-2998 colon, 10.5 µM; in the assay on MOLT-4 leukemia, 10.8 µM; in the assay with MDA-MB-231 breast, 8.4 µM; in the assay with HCT-15 colon, 8.26 µM; in the assay with CCRF-CEM leukemia, 36.8 µM. The TGI in the assay on SNB-19 CNS was 9.23 µM; in the assay with BT-549 breast it was 15.4 µM; with K-562 leukemia, greater than 100 µM.

In the case of `O=c1ccc(N=Nc2ccccc2)ccc1O`, the TGI in the assay with PC-3 prostate was 28.6 µM; in the assay on MOLT-4 leukemia, 25.1 µM; with MDA-MB-231 breast it was 36.9 µM; in the assay with HL-60(TB) leukemia, 51.2 µM; with HCT-15 colon, 19.8 µM; with SNB-19 CNS, greater than 100 µM. In addition, the TGI was 56.6 µM with BT-549 breast and greater than 100 µM with K-562 leukemia.

As for `COc1cccc(/C=C2\N=C(c3ccccc3)OC2=O)c1`, the TGI in the assay on PC-3 prostate was greater than 100 µM; with HCC-2998 colon, greater than 100 µM; in the assay with MDA-MB-231 breast, greater than 100 µM; in the assay with HL-60(TB) leukemia it was 26 µM; in the assay with HCT-15 colon, greater than 100 µM; in the assay with CCRF-CEM leukemia it was 58.8 µM. Besides, the TGI in the assay with SNB-19 CNS, in the assay with BT-549 breast and in the assay on K-562 leukemia was greater than 100 µM each time.

Take `CCCN1C(=O)/C(=C/c2ccc(SC(F)(F)F)cc2)SC1=Nc1ccc(OC)cc1`: the GI50 in the assay on PC-3 prostate is 15.6 µM; in the assay with MOLT-4 leukemia, greater than 50 µM; with MDA-MB-231 breast, 5.93 µM; in the assay with HL-60(TB) leukemia it was greater than 50 µM; in the assay on HCT-15 colon, 2.65 µM; with SNB-19 CNS it was 17.4 µM. The GI50 in the assay with BT-549 breast is 45.1 µM; in the assay on K-562 leukemia it was 23.1 µM. Further, the TGI with PC-3 prostate was greater than 50 µM; in the assay on MOLT-4 leukemia, greater than 50 µM; in the assay on MDA-MB-231 breast, 19.5 µM; in the assay on HL-60(TB) leukemia, greater than 50 µM; in the assay with HCT-15 colon it was 36.9 µM; in the assay on SNB-19 CNS, greater than 50 µM. Moreover, the TGI with BT-549 breast and with K-562 leukemia was greater than 50 µM each time.

`CCOc1ccc2nc(NC(=O)C(=O)C3C(=O)C(CC4C(=O)c5ccccc5C4=O)C(=O)CC3(C)C)sc2c1` (stereo not given): the TGI is greater than 100 µM in the assay with PC-3 prostate; greater than 100 µM in the assay with HCC-2998 colon; 90.4 µM with MOLT-4 leukemia; greater than 100 µM in the assay on MDA-MB-231 breast; 64.2 µM in the assay with HL-60(TB) leukemia; greater than 100 µM in the assay on HCT-15 colon. Moreover, the TGI is 70.1 µM in the assay on CCRF-CEM leukemia, greater than 100 µM with SNB-19 CNS and greater than 100 µM with BT-549 breast.

The values are drawn from PubChem BioAssay (NCI).
